Experimental data taken from patent EP4570805A1, “TRICYCLIC COMPOUNDS AND MEDICAL USE THEREOF” (Chia Tai Tianqing Pharmaceutical Group Co., Ltd., priority 2022, dated 2024).

Key:
Capan-1 cells = experiment: Inhibitory activity for Capan-1 cell proliferation (CCK-8); assay type: cell-based; settings: 5 days incubation
Method: Capan-1 cells in a well-growing state were collected into a centrifuge tube, adjusted to a cell density of 1.5 × 10^4 cells/mL, and inoculated onto a 96-well plate (100 µL/well). […] Meanwhile, a control was set. After 5 days of incubation in the cell incubator, the assay reagent CCK-8 (manufacturer: Dojindo Laboratories, Beijing; 10 µL/well) was added. After 4 h of incubation in the cell incubator, the absorbance was measured at 450 nm on a PerkinElmer Envision microplate reader. A four-parameter analysis was performed, a dose-response curve was fitted, and IC50 was calculated.

AsPc-1 cells = experiment: Inhibitory activity for AsPc-1 cell proliferation (CCK-8); assay type: cell-based, human
Method: AsPc-1 cells in a well-growing state were collected into a centrifuge tube, adjusted to a cell density of 3 × 10^4 cells/mL, and inoculated onto a 96-well plate (100 µL/well). The compounds were added using a nanoliter pipettor such that the final concentrations of the compounds were 5000 nM-0.31 nM (the addition was performed in duplicate). Meanwhile, a control was set. After 72 h of incubation in the cell incubator, the assay reagent CCK-8 (manufacturer: Dojindo Laboratories; 10 µL/well) was added. After 3 h of incubation in the cell incubator, the absorbance was measured at 450 nm on a PerkinElmer Envision microplate reader. A four-parameter analysis was performed, a dose-response curve was fitted, and IC50 was calculated.

[1] = Homo sapiens, ASPC1, 72 h incubation

Compound | IC50 (AsPc-1 cells; [1]) [nM] | IC50 (Capan-1 cells; Homo sapiens, CAPAN-1, 120 h) [nM] | IC50 (Capan-1 cells) [nM] | IC50 (AsPc-1 cells; 72 h incubation) [nM]
C#Cc1c(F)ccc2cc(O)cc(-c3nc4c5c(nc(OC[C@@H]6CCCN6C)nc5c3F)N(C(C)c3cccnc3N)[C@@H](C)CO4)c12 (single isomer, unassigned) [Example 67] | ≤ 100 | < 100 |  | 
C#Cc1c(F)ccc2cc(O)cc(-c3nc4c5c(nc(OCC67CCCN6CC(F)C7)nc5c3F)N(C(C)c3cccnc3N)C(C)CO4)c12 (single isomer, unassigned) [Example 39] | ≤ 100 | < 100 |  | 
C#Cc1c(F)ccc2cc(O)cc(-c3nc4c5c(nc(OCC6(CN7CCOCC7)CC6)nc5c3F)N(C(C)c3cccnc3N)[C@@H](C)CO4)c12 (single isomer, unassigned) [Example 69] | ≤ 100 | < 100 |  | 
C#Cc1c(F)ccc2cccc(-c3nc4c5c(nc(OCC67CCCN6CC(F)C7)nc5c3F)N(C(C)c3cccnc3N)C(C)CO4)c12 (single isomer, unassigned) [Example 47] | ≤ 100 | < 100 |  | 
[2H]C([2H])(Oc1nc2c3c(nc(-c4cccc5ccc(F)c(C#C)c45)c(F)c3n1)OC[C@H](C)N2C(C)c1cccnc1N)[C@@]12CCCN1C[C@H](F)C2 (single isomer, unassigned) [Example 113] | ≤ 100 | < 100 |  | 
C#Cc1c(F)ccc2cc(O)cc(-c3nc4c5c(nc(OCC67CCCN6CC(F)C7)nc5c3F)N(C(C)c3cccnc3N)CCO4)c12 (single isomer, unassigned) [Example 36] | ≤ 100 | < 100 |  | 
C#Cc1c(F)ccc2cc(N)cc(-c3nc4c5c(nc(OCC67CCCN6CC(F)C7)nc5c3F)N(C(C)c3cccnc3N)C(C)CO4)c12 (single isomer, unassigned) [Example 54] |  |  | < 100 | ≤ 100
[2H]C([2H])(Oc1nc2c3c(nc(-c4cc(O)cc5ccc(F)c(C#C)c45)c(F)c3n1)OC[C@H](C)N2C(C)c1cccnc1N)[C@@]12CCCN1C[C@H](F)C2 (single isomer, unassigned) [Example 71] | ≤ 100 | < 100 |  | 
[2H]C([2H])(Oc1nc2c3c(nc(-c4cccc5ccc(F)c(C#C)c45)c(F)c3n1)OC[C@H](C)N2C(C)c1cccnc1N)[C@@]12CCCN1C[C@H](F)C2 (single isomer, unassigned) [Example 114] |  |  | < 100 | ≤ 100
C#Cc1c(F)ccc2cc(O)cc(-c3nc4c5c(nc(OC[C@@]67CCCN6C[C@H](F)C7)nc5c3F)N(C(C)c3cccnc3N)CCO4)c12 (some centres unmarked) [Example 34] | ≤ 100 | < 100 |  | 
C#Cc1c(F)ccc2cc(O)cc(-c3nc4c5c(nc(OC[C@@]67CCCN6C/C(=C\F)C7)nc5c3F)N(C(C)c3cccnc3N)[C@@H](C)CO4)c12 (single isomer, unassigned) [Example 177] |  |  | < 100 | ≤ 100
C#Cc1c(F)ccc2cc(O)cc(-c3nc4c5c(nc(OC[C@@]67CCCN6C[C@H](F)C7)nc5c3F)N(C(C)c3cccnc3N)[C@@H](C)CO4)c12 (some centres unmarked) [Example 38] | ≤ 100 | < 100 |  | 
C#Cc1c(F)ccc2cc(N)cc(-c3nc4c5c(nc(OCC67CCCN6CC(F)C7)nc5c3F)N(C(C)c3cccnc3N)C(C)CO4)c12 (single isomer, unassigned) [Example 53] | ≤ 100 | < 100 |  | 
C#Cc1c(F)ccc2cc(O)cc(-c3nc4c5c(nc(OC[C@@]67CCCN6C[C@H](F)C7)nc5c3F)N(CC)CCO4)c12 [Example 3] | 100 to 500 | 100 to 500 |  | 
C#Cc1c(F)ccc2cc(O)cc(-c3nc4c5c(nc(OCC67CCCN6CC(F)C7)nc5c3F)N(CC)C(C)CO4)c12 (single isomer, unassigned) [Example 32] | ≤ 100 | < 100 |  | 
C#Cc1c(F)ccc2cc(O)cc(-c3nc4c5c(nc(OC[C@@]67CCCN6C[C@H](F)C7)nc5c3F)N(C(C)C)C(C)CO4)c12 (some centres unmarked) [Example 49] | ≤ 100 |  |  | 
C#Cc1c(F)ccc2cc(O)cc(-c3nc4c5c(nc(OC[C@@]67CCCN6C[C@H](F)C7)nc5c3F)N(C(C)(C)C)CCO4)c12 [Example 31] | 100 to 500 | 100 to 500 |  | 
C#Cc1c(F)ccc2cc(O)cc(-c3nc4c5c(nc(OCC67CCCN6CC(F)C7)nc5c3F)N(C(C)c3cccnc3N)C(C)CO4)c12 (single isomer, unassigned) [Example 40] |  |  | < 100 | ≤ 100
[2H]C([2H])(Oc1nc2c3c(nc(-c4cc(O)cc5ccc(F)c(C#C)c45)c(F)c3n1)OCCN2C(C)c1cccnc1N)[C@@]12CCCN1C[C@H](F)C2 (some centres unmarked) [Example 51] | ≤ 100 | < 100 |  | 
C#Cc1c(F)ccc2cc(O)cc(-c3nc4c5c(nc(OC[C@@]67CCCN6C/C(=C\F)C7)nc5c3F)N(C(C)c3cccnc3N)[C@@H](C)CO4)c12 (single isomer, unassigned) [Example 176] | ≤ 100 | < 100 |  | 

Second part, led by results:

IC50 (AsPc-1 cells; [1]) [nM] | Compound | IC50 (Capan-1 cells; Homo sapiens, CAPAN-1, 120 h) [nM] | IC50 (Capan-1 cells) [nM] | IC50 (AsPc-1 cells; 72 h incubation) [nM]
≤ 100 | C#Cc1c(F)ccc2cc(O)cc(-c3nc4c5c(nc(OC[C@@H]6CC(F)(F)CN6C)nc5c3F)N(C(C)c3cccnc3N)[C@@H](C)CO4)c12 (single isomer, unassigned) [Example 148] | < 100 |  | 
≤ 100 | C#Cc1c(F)ccc2cc(O)cc(-c3nc4c5c(nc(OCCN6CCCC6)nc5c3F)N(C(C)c3cccnc3N)[C@@H](C)CO4)c12 (single isomer, unassigned) [Example 138] | < 100 |  | 
≤ 100 | C#Cc1c(F)ccc2cc(O)cc(-c3nc4c5c(nc(OC[C@@H]6C[C@@H](F)CN6C)nc5c3F)N(C(C)c3cccnc3N)[C@@H](C)CO4)c12 (single isomer, unassigned) [Example 146] | < 100 |  | 
≤ 100 | C#Cc1c(F)ccc2cc(N)cc(-c3nc4c5c(nc(OCC67CCCN6CCC7)nc5c3F)N(C(C)c3cccnc3N)[C@@H](C)CO4)c12 (single isomer, unassigned) [Example 164] |  |  | 
≤ 100 | C#Cc1c(F)ccc2cc(O)cc(-c3nc4c5c(nc(OCC6(CN(C)C)CC6)nc5c3F)N(C(C)c3cccnc3N)[C@@H](C)CO4)c12 (single isomer, unassigned) [Example 150] | < 100 |  | 
≤ 100 | CCc1c(F)ccc2cccc(-c3nc4c5c(nc(OC[C@@]67CCCN6C[C@H](F)C7)nc5c3F)N(C(C)c3cccnc3N)[C@@H](C)CO4)c12 (single isomer, unassigned) [Example 122] | < 100 |  | 
≤ 100 | C#Cc1c(F)ccc2cc(O)cc(-c3nc4c5c(nc(OCCN6CC(F)C6)nc5c3F)N(C(C)c3cccnc3N)[C@@H](C)CO4)c12 (single isomer, unassigned) [Example 172] | < 100 |  | 
≤ 100 | C#Cc1c(F)ccc2cc(O)cc(-c3nc4c5c(nc(OC[C@@]67CCCN6CC(=C)C7)nc5c3F)N(C(C)c3cccnc3N)[C@@H](C)CO4)c12 (single isomer, unassigned) [Example 178] |  |  | 
≤ 100 | CC(c1cccnc1N)N1c2nc(OC[C@@]34CCCN3C[C@H](F)C4)nc3c(F)c(-c4cc(O)cc5ccccc45)nc(c23)OC[C@@H]1C (single isomer, unassigned) [Example 118] | < 100 |  | 
≤ 100 | C#Cc1cccc2cccc(-c3nc4c5c(nc(OC[C@@]67CCCN6C[C@H](F)C7)nc5c3F)N(C(C)c3cccnc3N)[C@@H](C)CO4)c12 (single isomer, unassigned) [Example 130] | < 100 |  | 
≤ 100 | CC(c1cccnc1N)N1c2nc(OC[C@@]34CCCN3C[C@H](F)C4)nc3c(F)c(-c4cccc5cccc(Cl)c45)nc(c23)OC[C@@H]1C (some centres unmarked) [Example 115] | < 100 |  | 
≤ 100 | CC(c1cccnc1N)N1c2nc(OC[C@@]34CCCN3C[C@H](F)C4)nc3c(F)c(-c4cccc5ccc(F)c(Cl)c45)nc(c23)OC[C@@H]1C (single isomer, unassigned) [Example 124] | < 100 |  | 
≤ 100 | C#Cc1c(F)ccc2cc(O)cc(-c3nc4c5c(nc(OC[C@@H]6C[C@H](F)CN6C)nc5c3F)N(C(C)c3cccnc3N)[C@@H](C)CO4)c12 (single isomer, unassigned) [Example 105] | < 100 |  | 
≤ 100 | C#Cc1c(F)ccc2cc(O)cc(-c3nc4c5c(nc(N6CC(C)(N(C)C)C6)nc5c3F)N(C(C)c3cccnc3N)[C@@H](C)CO4)c12 (single isomer, unassigned) [Example 156] | < 100 |  | 
